We go through seven compounds from patent US20050037446A1, “Agents that recognize src when phosphorylated at serine 17” (priority 2001, published 2005).

For data set [1], the system named is Src++ and SYF cells. Briefly: MTT assay for cell proliferation. The data set is classed as cell-based, mouse. Particulars: for Stimulation of cell growth: SYF cells, 48 hours. On the procedure: To determine the effect of Src on cell proliferation, the following protocol was used. Src^++ and SYF cells were serum-starved overnight and plated onto 96 well plates. Cells were then treated with PDGF, EGF, Forskolin, H89, and/or PD98059 (PD, 10 μM, Cal Biochem). Cells were analyzed 48 hours later by MTT assay and data quantified (n=4±S.E.). The MTT assay for cell proliferation was conducted as follows (Schmitt and Stork, Mol. Cell. Biol. 21:3671-83, 2001). Briefly, 2.5 hours prior to lysis, 20 μl of sterile […] MTT (Sigma) was added to the cells and allowed to incubate at 37° C. At the appropriate time, cells were lysed and proteins solubilized in 50% volume/volume H2O and N,N,-dimethylformamide containing 20% SDS, 0.5% of 80% acetic acid, and 0.4% 1M HCL Plates were read using a microplate reader and presented as the difference between optical densities at […].
To quantitate cell proliferation, cells were analyzed 48 hours later by MTT assay (see EXAMPLE 3) and data was quantified (n=4±S.E.). […] Expression of Flag-Src in SYF cells restored Forskolin's ability to inhibit PDGF- and EGF-mediated cell growth.
Background: Tetrazolium dyes change colour on reduction, which living cells bring about.

Data set [2] concerns purified catalytic subunit of PKA. Briefly: PKA kinase assay on membrane-spotted Src peptides, phospho-PKA substrate antibody. The data set is classed as biochemical. Particulars: 12.5 nM PKA catalytic subunit, 30° C., 30 minutes. The text has this: A peptide identical to amino acids 9-25 within the N-terminus of wild-type Src (WT) (KDASQRRRSLEPAENVH; SEQ ID NO: 12), which contains the potential PKA phosphorylation site (underlined), was generated using an Auto-Spot Robot ASP 222 (ABiMED, Langenfeld, Germany) and spotted onto a nitrocellulose membrane. Control peptides with serines 12 and/or 17 replaced by alanine (S12A, SEQ ID NO: 13; S17A, SEQ ID NO: 14; and S12AS17A, SEQ ID NO: 15), serine 17 replaced by aspartate (S17D, SEQ ID NO: 16), and arginines at 14-16 replaced by alanine (R14A, SEQ ID NO: 17; • R15A, SEQ ID NO: 18; R16A, SEQ ID NO: 19), as well as peptides designed to both a scrambled (SEQ ID NO: 20) and an unrelated (FLAG) sequence (SEQ ID NO: 21), were also generated and spotted onto the membrane.
Using a method previously described (Tegge et al., Biochen. 34:10569-77, 1995), the membranes were pre-incubated at room temperature (RT) overnight (ON) in buffer containing 20 mM Hepes, pH 7.4, 100 mM NaCl, 2 mM MgCl2, 1 mM EDTA, 1 mM DTI, and 0.2 mg/ml BSA. Membranes were then blocked at 30° C. for one hour in buffer containing 20 mM Hepes, pH 7.4, 100 mM NaCl, 2 mM MgCl2, 1 mM EDTA, 1 mM DTT, and 1 mg/ml BSA and 30 μM cold ATP. […] The membranes were then blocked, probed, and analyzed using chemiluminescence according the manufacturers guidelines for the phospho-PKA substrate antibody. […]

The subject of data set [3] is Src. In words: Src autophosphorylation at tyrosine 416 (Western blot). Type of data set: cell-based. Particulars: SYF cells. On the procedure:
To examine the mechanism of cAMP regulation of Src, Src kinase activity was assayed in vivo by monitoring autophosphorylation of Src at tyrosine 416 (Tyr416) using previously disclosed methods (Brown and Cooper, Biochim. Biophys. Acta 1287:121-49, 1996; Martin, Nat. Rev. Mol. Cell. Biol. 2:467-75,2001).
[…] Cell lysates were prepared, and Src immunopreciptiated and analyzed by Western blot for either tyrosine phosphorylation at site 416 (p416Src) using phospho-Src (Tyr416) antibodies (Cell Signaling Technology), Flag-Src, or analyzed by Western blot for either PKA phosphorylation or Src (using Src antibodies, Santa Cruz Biotechnology Inc.), using the methods described above. Alternatively, Flag-Src was immunoprecipitated from the cell lysates and analyzed by Western blot for either Cb1 or Flag-Src.
The activation of wild type Src by Forskolin was confirmed by observing autophosphorylation of Src at Tyr416 and using an in vitro kinase assay. To measure autophosphorylation of Src at Tyr416, SYF cells were transfected with either Flag-Src (WT) or Flag-SrcS17A and treated with Forskolin and PDGF or EGF, as described above. Flag-Src was immunoprecipitated from cell lysates and analyzed by Western blot for either phosphorylation of Src on Tyr416 or the presence of Flag-Src. […]

Data set [4] deals with Rap1. In words: Rap1 activation affinity assay (GST-RalGDS pull-down), NIH3T3 cells. The data set is classed as cell-based. Particulars: NIH3T3 cells, 10 μM, five minutes. On the procedure:
NIH3T3 cells (American Type Culture Collection, ATCC, Manassas, Va.) were cultured in Dulbecco-Modified Eagle Medium (DMEM) plus 10% fetal calf serum, penicillin/streptomycin, and L-glutamine at 37° C. in 5% CO2. Cells were maintained in serum-free DMEM for 16 hours at 37° C. in 5% CO2 prior to treatment. NIH3T3 cells were trasfected with Flag-Rap1 (see Vossler et al., Cell, 89:73-82, 1997) or stimulated with Forskolin (10 μM, Cal Biochem, Riverside, Calif.) for five minutes. Forskolin treated cells received either a pretreatment or post-treatment with 10 μM N-[2(Bromocimamylamino) ethyl]-5-isoquinolinesulfonamide (H89) (Cal Biochem, Riverside, Calif.) for 20 minutes.
Cells were co-transfected with Flag-Rap1 at seventy to eighty percent confluency with the cDNA using a Lipofectamine 2000 kit (Gibco BRL, Rockville, Md.) according to the manufacturer's instructions. The control vector, pcDNA3 (Invitrogen Corp.), was included in each set of transfections to assure that each plate received the same amount of DNA. Following transfection, cells were allowed to recover in serum containing media for 24 hours. Cells were then starved overnight in serum-free DMEM before treatment and lysis.
After treatment, cells were lysed in ice-cold lysis buffer (50 mM Tris-HCL (pH 8.0), 10% glycerol, 1% nonidet P40, 200 mM NaCl, 2.5 mM MgCl2, 1 mM phenylmethylsulfonyl fluoride, 1 μM leupeptin, 10 μln soybean trypsin inhibitor, 10 mM NaF, 0.1 μM aprotinin, and 1 mM NaVO4). Nuclei and cytoskeleton were removed from equivalent amounts of lysate by centrifugation at 5,000 rpm for five minutes. The supernatant was centrifuged at 100,000×g for one hour at 4° C. and, the resultant membrane was resuspended in cold lysis buffer. Aliquots of the membrane fraction were analyzed for the presence of C3G by Western blotting. The cytosolic or membrane fractions of treated or untreated cells were mixed with equivalent amounts of lysates from untreated Flag-Rap1 transfected cells. The mixture was incubated at 37° C. for five minutes and equal amounts of lysate were analyzed using the Rap1 activation assay to monitor Flag-Rap 1 activation by Gst-RalGDS.
The Rap1 activation affinity assay was performed as follows. A GST fusion protein of the Rap1-binding domain of RalGDS (GST-RalGDS, Dr. Bos, Utrecht University, The Netherlands) was expressed in E. coli following induction by isopropyl-1thio-β-D-galactopyranoside. Active Rap1 was isolated as previously described (Franke et al., EMBO J. 16:252-9, 1997). Briefly, equivalent amounts of supernatants (500 μg) were incubated with GST-RalGDS-Rap1 binding domain coupled to glutathione beads. Following a one hour incubation at 4° C., beads were pelleted and rinsed threes times with ice-cold lysis buffer. […] Proteins were detected using enhanced chemiluminescence.

Data set [5] has as its system T1, peptide identical to amino acids 9-25 within the N-terminus of wild-type Src (WT).
T1 sequence: KDASQRRRSLEPAENVH

In data set [6] the test system is T2, Src 9-25 control peptide S12A.
T2 sequence: KDAAQRRRSLEPAENVH

In the case of `COc1cccc(-c2cc(=O)c3ccccc3o2)c1N` [PD98059], the “PDGF stimulation of proliferation in presence of MEK inhibitor” value in data set [1] (Src++ and SYF cells, 10 μM) is on record as “dependent on ERK signaling”. Further, in data set [1] (transfected SYF cells, pretreatment), the “Effect on PDGF- and EGF-stimulated SYF cell growth” value was “blocked”. Regarding “KDASQRRRSLEPAENVH (listed as Homo sapiens) [WT, peptide identical to amino acids 9-25 of wild-type Src]”, the “Recognition by phospho-PKA substrate antibody after PKA kinase assay” value in data set [2] was “recognized”.

In the case of “S12A: control Src 9-25 peptide with serine 12 replaced by alanine (KDAAQRRRSLEPAENVH)”, the “Recognition by phospho-PKA substrate antibody after PKA kinase assay” value in data set [2] is listed as “recognized”. Turning to epidermal growth factor [EGF], the “Stimulation of cell growth” value in data set [1] was “stimulated SYF cell growth”. The “Activation of wild type Src and SrcS17A by growth factor” value in data set [3] was “activated both wild type Src and SrcS17A equally”. With platelet-derived growth factor [PDGF], the “Stimulation of cell growth” value in data set [1] is listed as “stimulated SYF cell growth”. For the same compound, the “Activation of wild type Src and SrcS17A by growth factor” value in data set [3] is “activated both wild type Src and SrcS17A equally”. On to prostaglandin E [PGE1], for which the “Activation of endogenous Rap1” value in data set [4] is “activated Rap1”. As to purified catalytic subunit of PKA, the “phosphorylation of spotted peptide, detected with the phospho-PKA substrate antibody” value in data set [5] was “Only the peptides containing Ser17 and adjacent arginines (WT and S12A) were recognized by the antibody, consistent with the consensus PKA recognition motif”; in data set [6] it was “Only the peptides containing Ser17 and adjacent arginines (WT and S12A) were recognized by the antibody, consistent with the consensus PKA recognition motif”.
